Data published in PubChem BioAssay (NCI).
Where “and” joins values, the source holds several entries; their conditions need not be identical. Identical values can stand only once.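 48-hour exposure; five concentrations; linearly interpolated endpoints. TGI denotes the concentration required for complete inhibition of growth.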

Each compound was assayed on PC-3 prostate (assay: DTP human tumour cell line panel, 48 h).
With `NS(=O)(=O)c1ccc(NC(=S)/N=C/C2=C(O)c3ccccc3C2=O)cc1` the TGI was > 100 µM.
For `O=C1NC2c3c(I)sc(I)c3C(O)C2O1` (stereo not given), the TGI was > 100 µM.
With `CNc1cc2c(c3ccccc13)C(CCl)CN2C(=O)c1cc2cc(OC)c(OC)c(OC)c2[nH]1` (stereo not given) the TGI was 0.0223 µM and 0.116 µM.
`Cc1cccc(C)c1NC(=O)C(Cc1c[nH]c2ccccc12)NC(=O)OCc1ccccc1` (stereo not given) gave a TGI of 28.8 µM.
For `S=C1NC2=C(CSC/C2=C\c2cccc(Br)c2)C(c2cccc(Br)c2)N1` (stereo not given), the TGI was > 100 µM.
For `Cc1ccc(C2=CC(=O)OC(C[P+](c3ccccc3)(c3ccccc3)c3ccccc3)(c3ccccc3)O2)cc1` (stereo not given), the TGI was 49 µM.
In the case of `O=c1oc2cc(O)ccc2c(O)c1C(c1ccccc1)c1c(O)c2ccc(O)cc2oc1=O`, the TGI is reported as > 100 µM.
For `Cc1c(/C=N\NC(=S)NCCNC(=S)N/N=C\c2c(C)n(C)n(-c3ccccc3)c2=O)c(=O)n(-c2ccccc2)n1C`, the TGI was > 100 µM.
With `O=P(O)(O)C(N=C(Nc1ccccc1)Nc1ccccc1)P(=O)(O)O` the TGI was > 100 µM.
In the case of `CCOC(=O)c1c(-c2ccc(O)c(OC)c2)c(C#N)c(=S)n(C2OC(CO)C(O)C(O)C2O)c1-c1ccccc1` (stereo not given), the TGI is reported as > 100 µM.
For `CCCCCCCCCCCC[S+](C)C`, the TGI was 9.92 µM.
With `C=C1CC(C#N)(C#N)[C@H]2C3CCCC3C[C@@H]12` (stereo not given in full) (tested in a mixture with another compound) the TGI was 97.4 µM.

What follows are compounds tested on OVCAR-8 ovarian (assay: DTP human tumour cell line panel, 48 h).
For `CCN1CN(c2ccccc2)C2(CCN(CC3COc4ccccc4O3)CC2)C1=O` (stereo not given), the TGI was > 100 µM.
`O=C1C=C/C(=N\N=C(c2ccccc2)c2ccccc2)O1` was tested, and the TGI was > 10 µM.
With `N[C@@H](Cc1ccccc1)C(=O)N1CCC[C@@H]1P(=O)(Oc1ccccc1)Oc1ccccc1` the TGI was > 100 µM.
For `Cc1ccc(/C=N\NC2c3cc(Cl)ccc3Nc3nc(=O)[nH]c(C)c32)cc1` (stereo not given), the TGI was > 100 µM.
In the case of `O=c1[nH][nH]c(=O)n1CCCCCCn1c(=O)[nH][nH]c1=O`, the TGI is reported as > 100 µM.
In the case of `CC(=O)NC1C(OCc2ccccc2)OC(CO)C(O)C1OCC(=O)N[C@@H](C)C(=O)N[C@H](CCC(=O)NCCCNc1c2ccccc2nc2cccc([N+](=O)[O-])c12)C(N)=O` (stereo not given in full), the TGI is reported as 1.71 µM.
In the case of `COc1ccc(-c2nc(SCC(=O)NNC(=S)Nc3ccccc3)[nH]c2-c2ccc(OC)cc2)cc1`, the TGI is reported as > 100 µM.
For `CCCCCC#CCOC(=O)C(=[N+]=[N-])P(=O)(c1ccccc1)c1ccccc1`, the TGI was > 10 µM.
`COc1ccc(C(=O)/C=C/c2ccc(OCCCOc3ccc(/C=C/C(=O)c4ccc(OC)cc4)cc3)cc2)cc1` was tested, and the TGI was > 100 µM.
With `CCOc1cc(/C=C2/C(C)=NN(c3cccc(Cl)c3)/C2=N/c2nc3ccccc3s2)ccc1O` the TGI was > 100 µM.
For `O=C(O)COc1ccccc1C(=O)Nc1ccccc1`, the TGI was > 100 µM.
`COc1cc(OC)cc(C(=O)CC(=O)c2cc(OC)cc(OC)c2)c1` was tested, and the TGI was > 100 µM.
Work on `COc1ccc(C2c3cn[nH]c3CC3CCCCC32)cc1` (stereo not given) yielded a TGI of 35.6 µM.
In the case of `O=C(O)[C@H]1CCCN1CP(=O)(O)CN1CCC[C@@H]1C(=O)O`, the TGI is reported as > 100 µM.
For `O=C1CC2(CCC(O)(c3ccc4ccccc4c3)C(C(=O)c3ccc4ccccc4c3)C2)C(=O)c2ccccc2N1` (stereo not given), the TGI was > 100 µM.
In the case of `COc1cc2c(cc1OC)C(C(c1ccccc1)c1ccccc1)N(C)CC2` (stereo not given), the TGI is reported as > 100 µM.
In the case of `CCOC(=O)N1CCC(N[C@@H]2c3cc4c(cc3C(c3cc(OC)c(O)c(OC)c3)C3C(=O)OC[C@@H]32)OCO4)CC1` (stereo not given in full), the TGI is reported as 11.6 µM and 10.3 µM.
With `C[N+](C)([O-])CCOc1cc2c(c3ccccc13)-c1ccccc1C2=O` the TGI was > 93.1 µM.
For `CCOC(=O)C1S/C(=N\C(=N)N[N+](=O)[O-])N=C1C` (stereo not given), the TGI was > 100 µM.
For `O=[N+]([O-])C(=C(Nc1cccc2cccnc12)Nc1cccc2cccnc12)C(Cl)=C(Cl)Cl`, the TGI was > 100 µM.
`O=C1NC2c3c(I)sc(I)c3C(O)C2O1` (stereo not given) was tested, and the TGI was > 100 µM.
`Cc1nc(C)c(C(=O)NNC(=O)C[N+](C)(C)C)cc1C(=O)NNC(=O)C[N+](C)(C)C` was tested, and the TGI was > 100 µM.
In the case of `CNc1cc2c(c3ccccc13)C(CCl)CN2C(=O)c1cc2cc(OC)c(OC)c(OC)c2[nH]1` (stereo not given), the TGI is reported as 0.0124 µM.
Work on `Cc1cccc(C)c1NC(=O)C(Cc1c[nH]c2ccccc12)NC(=O)OCc1ccccc1` (stereo not given) yielded a TGI of 89.2 µM.
`S=C1NC2=C(CSC/C2=C\c2cccc(Br)c2)C(c2cccc(Br)c2)N1` (stereo not given) was tested, and the TGI was > 100 µM.
For `CCCCCCCCCCCCCCCCNc1cccc2ccccc12`, the TGI was > 100 µM.
In the case of `O=C1OCC/C1=N/O`, the TGI is reported as > 100 µM.
In the case of `CC(O)CNC(=O)C(C)Oc1ccc(OCC2CCCCC2)cc1` (stereo not given), the TGI is reported as > 100 µM.
Compound `Cc1ccc(C2=CC(=O)OC(C[P+](c3ccccc3)(c3ccccc3)c3ccccc3)(c3ccccc3)O2)cc1` (stereo not given) has a TGI of 51.1 µM.
With `O=c1oc2cc(O)ccc2c(O)c1C(c1ccccc1)c1c(O)c2ccc(O)cc2oc1=O` the TGI was > 100 µM.
With `O=P(O)(O)C(N=C(Nc1ccccc1)Nc1ccccc1)P(=O)(O)O` the TGI was > 100 µM.
With `CCOC(=O)c1c(-c2ccc(O)c(OC)c2)c(C#N)c(=S)n(C2OC(CO)C(O)C(O)C2O)c1-c1ccccc1` (stereo not given) the TGI was > 100 µM.
For `CCCCCCCCCCCC[S+](C)C`, the TGI was 17.9 µM.
Work on `C=C1CC(C#N)(C#N)[C@H]2C3CCCC3C[C@@H]12` (stereo not given in full) (tested in a mixture with another compound) yielded a TGI of 33 µM.

Each compound was assayed on SF-539 CNS (assay: DTP human tumour cell line panel, 48 h).
Compound `CCN1CN(c2ccccc2)C2(CCN(CC3COc4ccccc4O3)CC2)C1=O` (stereo not given) has a TGI of 33.3 µM.
For `N[C@@H](Cc1ccccc1)C(=O)N1CCC[C@@H]1P(=O)(Oc1ccccc1)Oc1ccccc1`, the TGI was > 100 µM.
With `Cc1ccc(/C=N\NC2c3cc(Cl)ccc3Nc3nc(=O)[nH]c(C)c32)cc1` (stereo not given) the TGI was > 100 µM.
In the case of `O=c1[nH][nH]c(=O)n1CCCCCCn1c(=O)[nH][nH]c1=O`, the TGI is reported as > 100 µM.
For `CC(=O)NC1C(OCc2ccccc2)OC(CO)C(O)C1OCC(=O)N[C@@H](C)C(=O)N[C@H](CCC(=O)NCCCNc1c2ccccc2nc2cccc([N+](=O)[O-])c12)C(N)=O` (stereo not given in full), the TGI was 0.279 µM.
`COc1ccc(-c2nc(SCC(=O)NNC(=S)Nc3ccccc3)[nH]c2-c2ccc(OC)cc2)cc1` was tested, and the TGI was 30.9 µM.
In the case of `CCCCCC#CCOC(=O)C(=[N+]=[N-])P(=O)(c1ccccc1)c1ccccc1`, the TGI is reported as > 10 µM.
Work on `COc1ccc(C(=O)/C=C/c2ccc(OCCCOc3ccc(/C=C/C(=O)c4ccc(OC)cc4)cc3)cc2)cc1` yielded a TGI of 72.6 µM.
In the case of `CCOc1cc(/C=C2/C(C)=NN(c3cccc(Cl)c3)/C2=N/c2nc3ccccc3s2)ccc1O`, the TGI is reported as 57 µM.
`O=C(O)COc1ccccc1C(=O)Nc1ccccc1` was tested, and the TGI was > 100 µM.
In the case of `COc1cc(OC)cc(C(=O)CC(=O)c2cc(OC)cc(OC)c2)c1`, the TGI is reported as > 100 µM.
For `O=C1CC2(CCC(O)(c3ccc4ccccc4c3)C(C(=O)c3ccc4ccccc4c3)C2)C(=O)c2ccccc2N1` (stereo not given), the TGI was > 100 µM.
`COc1cc2c(cc1OC)C(C(c1ccccc1)c1ccccc1)N(C)CC2` (stereo not given) was tested, and the TGI was > 100 µM.
`CCOC(=O)N1CCC(N[C@@H]2c3cc4c(cc3C(c3cc(OC)c(O)c(OC)c3)C3C(=O)OC[C@@H]32)OCO4)CC1` (stereo not given in full) was tested, and the TGI was 5.78 µM and 4.71 µM.
For `C[N+](C)([O-])CCOc1cc2c(c3ccccc13)-c1ccccc1C2=O`, the TGI was 38.4 µM.
For `CCOC(=O)C1S/C(=N\C(=N)N[N+](=O)[O-])N=C1C` (stereo not given), the TGI was > 100 µM.
With `O=[N+]([O-])C(=C(Nc1cccc2cccnc12)Nc1cccc2cccnc12)C(Cl)=C(Cl)Cl` the TGI was > 100 µM.
For `NS(=O)(=O)c1ccc(NC(=S)/N=C/C2=C(O)c3ccccc3C2=O)cc1`, the TGI was > 100 µM.
With `O=C1NC2c3c(I)sc(I)c3C(O)C2O1` (stereo not given) the TGI was > 100 µM.
In the case of `Cc1nc(C)c(C(=O)NNC(=O)C[N+](C)(C)C)cc1C(=O)NNC(=O)C[N+](C)(C)C`, the TGI is reported as > 100 µM.
With `Cc1cccc(C)c1NC(=O)C(Cc1c[nH]c2ccccc12)NC(=O)OCc1ccccc1` (stereo not given) the TGI was 41 µM.
In the case of `S=C1NC2=C(CSC/C2=C\c2cccc(Br)c2)C(c2cccc(Br)c2)N1` (stereo not given), the TGI is reported as > 100 µM.
For `CCCCCCCCCCCCCCCCNc1cccc2ccccc12`, the TGI was > 100 µM.
For `O=C1OCC/C1=N/O`, the TGI was > 100 µM.
